Results taken from ChEMBL document CHEMBL3097990, “Probing the Binding Site of Bile Acids in TGR5” (ACS Med Chem Lett, 2013).

How the values were obtained:
[1] = species on record: Homo sapiens; assay: Selectivity ratio of EC50 for TGR5 S270A mutant (unknown origin) to EC50 for wild type TGR5 (unknown origin)
[2] = species on record: Homo sapiens; assay: Selectivity ratio of EC50 for TGR5 Y89A mutant (unknown origin) to EC50 for wild type TGR5 (unknown origin)
[3] = biological target: T1, G-protein coupled bile acid receptor 1 (Homo sapiens, UniProt Q8TDU6); assay: Agonist activity at wild type TGR5 (unknown origin)
T1 sequence (Q8TDU6 whole entry): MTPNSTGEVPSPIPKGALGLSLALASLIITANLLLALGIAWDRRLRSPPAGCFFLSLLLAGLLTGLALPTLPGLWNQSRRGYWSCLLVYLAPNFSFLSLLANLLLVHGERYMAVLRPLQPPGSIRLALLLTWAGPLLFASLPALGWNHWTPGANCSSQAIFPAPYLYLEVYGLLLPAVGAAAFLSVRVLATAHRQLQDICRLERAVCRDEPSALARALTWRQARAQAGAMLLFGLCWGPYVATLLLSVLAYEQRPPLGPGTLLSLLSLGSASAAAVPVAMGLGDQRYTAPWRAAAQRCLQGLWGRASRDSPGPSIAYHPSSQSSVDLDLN

[4] = species on record: Homo sapiens; assay: Selectivity ratio of EC50 for TGR5 N93D mutant (unknown origin) to EC50 for wild type TGR5 (unknown origin)
[5] = species on record: Homo sapiens; assay: Selectivity ratio of EC50 for TGR5 Y89F mutant (unknown origin) to EC50 for wild type TGR5 (unknown origin)

CC[C@H]1[C@@H](O)[C@@H]2[C@H](CC[C@]3(C)[C@@H]([C@H](C)CCN)CC[C@@H]23)[C@@]2(C)CC[C@@H](O)C[C@@H]12
Ratio EC50 [1]: > 1000 | Ratio EC50 [2]: > 1000 | EC50 [3]: 1.32 µM | Ratio EC50 [4]: > 1000 | Ratio EC50 [5]: 1.7
